Toxic doses and inconclusive results are not listed. The calls were made as follows: active = survival T/C of 150% or more; inactive = T/C below 125% in these data.
System: CD2F1 mice, L1210 leukemia ip, survival T/C
Assay: NCI In Vivo Anticancer Drug Screen. Data for tumor model L1210 Leukemia (intraperitoneal) in CD2F1 (CDF1) mice
Conditions: higher = longer survival
How it was run: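 Ratio T/C, where T is the treated-group value and C the vehicle-dosed control value, from mice implanted with a transplantable tumor.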

[1] = endpoint: mean survival time, dose: 100.0 mg/kg/injection, schedule: Q01DX009 (ip), vehicle: saline with Tween-80
[2] = endpoint: mean survival time, dose: 100.0 mg/kg/injection, schedule: Q04DX003 (ip), vehicle: saline with Tween-80
[3] = endpoint: mean survival time, dose: 200.0 mg/kg/injection, schedule: Q01DX009 (ip), vehicle: saline with Tween-80
[4] = endpoint: mean survival time, dose: 200.0 mg/kg/injection, schedule: Q04DX003 (ip), vehicle: saline with Tween-80
[5] = endpoint: mean survival time, dose: 400.0 mg/kg/injection, schedule: Q01DX009 (ip), vehicle: saline with Tween-80
[6] = endpoint: mean survival time, dose: 400.0 mg/kg/injection, schedule: Q04DX003 (ip), vehicle: saline with Tween-80
[7] = endpoint: mean survival time, dose: 100.0 mg/kg/injection, schedule: Q01DX001 (ip), vehicle: saline with Tween-80
[8] = endpoint: mean survival time, dose: 200.0 mg/kg/injection, schedule: Q01DX001 (ip), vehicle: saline with Tween-80
[9] = endpoint: mean survival time, dose: 400.0 mg/kg/injection, schedule: Q01DX001 (ip), vehicle: saline with Tween-80
[10] = endpoint: mean survival time, dose: 50.0 mg/kg/injection, schedule: Q01DX009 (ip), vehicle: saline with Tween-80

Measured: T/C

CCOC(=O)c1cn(C)c2c1C(O)=C(C(=O)OC)CC(=O)N2
inactive: endpoint: median survival time, dose: 25.0 mg/kg/injection, schedule: Q01DX009 (ip), vehicle: saline with Tween-80 90 % of control | endpoint: median survival time, dose: 50.0 mg/kg/injection, schedule: Q01DX009 (ip), vehicle: saline with Tween-80 98 % of control | endpoint: median survival time, dose: 100.0 mg/kg/injection, schedule: Q01DX009 (ip), vehicle: saline with Tween-80 92 % of control | endpoint: median survival time, dose: 200.0 mg/kg/injection, schedule: Q01DX009 (ip), vehicle: saline with Tween-80 94 % of control | endpoint: median survival time, dose: 400.0 mg/kg/injection, schedule: Q01DX009 (ip), vehicle: saline with Tween-80 90 % of control

Clc1ccc(CSCc2ccc(Cl)cc2Cl)c(Cl)c1
inactive: [1] 96 % of control | [2] 100 % of control | [3] 100 % of control | [4] 104 % of control | [5] 98 % of control | [6] 100 % of control

O=c1[nH]c(/C=C/c2ccccc2)c([N+](=O)[O-])c(=O)[nH]1
inactive: [7] 95 % of control | [8] 90 % of control | [9] 90 % of control

O=C1NC(=O)C2=C1C1(Cl)C(Cl)=C(Cl)C2(Cl)C1(Cl)Cl
inactive: [2] 103 % of control | [4] 101 % of control | [6] 103 % of control

CCN(CC)c1ccc(-c2nc3ccccc3s2)cc1
inactive: endpoint: mean survival time, dose: 50.0 mg/kg/injection, schedule: Q01DX009 (ip), vehicle: Klucel (hydroxypropylcellulose) (HPC) 106 % of control | endpoint: mean survival time, dose: 100.0 mg/kg/injection, schedule: Q01DX009 (ip), vehicle: Klucel (hydroxypropylcellulose) (HPC) 98 % of control | endpoint: mean survival time, dose: 200.0 mg/kg/injection, schedule: Q01DX009 (ip), vehicle: Klucel (hydroxypropylcellulose) (HPC) 102 % of control

COC(=O)C12OCC34C(CC5C(C)C6=CC(=O)OC6=CC5(C)C3C(O)C1O)OC(=O)C(O)C24 (configuration not stated)
inactive: endpoint: median survival time, dose: 0.25 mg/kg/injection, schedule: Q01DX005 (ip), vehicle: Klucel (hydroxypropylcellulose) (HPC) 112 % of control | endpoint: median survival time, dose: 0.5 mg/kg/injection, schedule: Q01DX005 (ip), vehicle: Klucel (hydroxypropylcellulose) (HPC) 114 % of control

Nc1ncnc2c1c1c(=O)[nH]nnc1n2C1OC(CO)C(O)C1O (configuration not stated)
inactive: endpoint: mean survival time, dose: 3.13 mg/kg/injection, schedule: Q01DX005 (ip), vehicle: water 101 % of control | endpoint: mean survival time, dose: 6.25 mg/kg/injection, schedule: Q01DX005 (ip), vehicle: water 103 % of control | endpoint: mean survival time, dose: 12.5 mg/kg/injection, schedule: Q01DX005 (ip), vehicle: water 92 % of control | endpoint: mean survival time, dose: 12.5 mg/kg/injection, schedule: Q01DX009 (ip), vehicle: distilled water + Tween-80 113 % of control | endpoint: mean survival time, dose: 25.0 mg/kg/injection, schedule: Q01DX005 (ip), vehicle: water 107 % of control | endpoint: mean survival time, dose: 25.0 mg/kg/injection, schedule: Q01DX009 (ip), vehicle: distilled water + Tween-80 122 % of control | endpoint: mean survival time, dose: 50.0 mg/kg/injection, schedule: Q01DX005 (ip), vehicle: water 105 % of control | endpoint: mean survival time, dose: 50.0 mg/kg/injection, schedule: Q01DX009 (ip), vehicle: distilled water + Tween-80 122 % of control | endpoint: mean survival time, dose: 100.0 mg/kg/injection, schedule: Q01DX005 (ip), vehicle: water 107 % of control

C=CCOc1cccc[n+]1CC(=O)CC(O)(C(F)(F)F)C(F)(F)F
inactive: [2] 95 % of control | [4] 92 % of control | [6] 97 % of control

[Cl][Dy]([Cl])[Cl]
inactive: [10] 89 % of control | [3] 90 % of control

O=C(CC(O)(C(F)(F)F)C(F)(F)F)CC(O)(C(F)(F)F)C(F)(F)F
inactive: endpoint: mean survival time, dose: 5.0 mg/kg/injection, schedule: Q01DX001 (ip), vehicle: saline with Tween-80 94 % of control | endpoint: mean survival time, dose: 5.0 mg/kg/injection, schedule: Q04DX003 (ip), vehicle: saline 102 % of control | endpoint: mean survival time, dose: 10.0 mg/kg/injection, schedule: Q04DX003 (ip), vehicle: saline 92 % of control

CCCCOP(=O)(OCCCC)[O][Pb]([CH2]C)([CH2]C)[CH2]C
inactive: endpoint: mean survival time, dose: 6.25 mg/kg/injection, schedule: Q04DX003 (ip), vehicle: saline with Tween-80 97 % of control | endpoint: mean survival time, dose: 12.5 mg/kg/injection, schedule: Q04DX003 (ip), vehicle: saline with Tween-80 92 % of control

O=[N+]([O-])c1ccc(F)c(Cl)c1
inactive: endpoint: mean survival time, dose: 25.0 mg/kg/injection, schedule: Q01DX009 (ip), vehicle: other 96 % of control | endpoint: mean survival time, dose: 50.0 mg/kg/injection, schedule: Q01DX009 (ip), vehicle: other 100 % of control | endpoint: mean survival time, dose: 100.0 mg/kg/injection, schedule: Q01DX009 (ip), vehicle: other 96 % of control

CCCC[P+](C)(CC[P+](C)(c1ccccc1)c1ccccc1)c1ccccc1 (configuration not stated)
inactive: endpoint: mean survival time, dose: 6.25 mg/kg/injection, schedule: Q04DX002 (ip), vehicle: saline 104 % of control | endpoint: mean survival time, dose: 12.5 mg/kg/injection, schedule: Q04DX002 (ip), vehicle: saline 89 % of control

CC(Br)C(=O)OCc1ccccc1 (configuration not stated)
inactive: [2] 95 % of control | [4] 95 % of control | [6] 95 % of control

CC1=NCCN1CCN
inactive: endpoint: mean survival time, dose: 100.0 mg/kg/injection, schedule: Q04DX002 (ip), vehicle: saline 91 % of control | endpoint: mean survival time, dose: 200.0 mg/kg/injection, schedule: Q04DX002 (ip), vehicle: saline 109 % of control | endpoint: mean survival time, dose: 400.0 mg/kg/injection, schedule: Q04DX002 (ip), vehicle: saline 113 % of control

S=C(CCc1ccc2c(c1)CCCC2)N1CCOCC1
inactive: [2] 98 % of control | [4] 98 % of control | [6] 97 % of control

c1ccc(CN2CN(Cc3ccccc3)CN(Cc3ccccc3)C2)cc1
inactive: [1] 100 % of control | [2] 89 % of control | [3] 100 % of control | [4] 89 % of control | [5] 97 % of control | [6] 98 % of control

O=[N+]([O-])c1cc(S(=O)(=O)c2ccc(N3CCCCC3)c([N+](=O)[O-])c2)ccc1N1CCCCC1
inactive: [1] 91 % of control | [3] 97 % of control | [5] 95 % of control

N#CC(C#N)=Cc1ccc2c(c1)CCC2
inactive: endpoint: mean survival time, dose: 25.0 mg/kg/injection, schedule: Q01DX009 (ip), vehicle: saline with Tween-80 93 % of control | endpoint: mean survival time, dose: 25.0 mg/kg/injection, schedule: Q04DX003 (ip), vehicle: saline with Tween-80 100 % of control | [10] 96 % of control | endpoint: mean survival time, dose: 50.0 mg/kg/injection, schedule: Q04DX003 (ip), vehicle: saline with Tween-80 90 % of control | [1] 94 % of control | [2] 95 % of control

Cc1cc(I)cs1
inactive: endpoint: mean survival time, dose: 100.0 mg/kg/injection, schedule: Q01DX001 (ip), vehicle: saline 108 % of control | endpoint: mean survival time, dose: 200.0 mg/kg/injection, schedule: Q01DX001 (ip), vehicle: saline 102 % of control

CCOP1(=O)OCC(C(C)(C)C)CO1 (configuration not stated)
inactive: endpoint: mean survival time, dose: 12.5 mg/kg/injection, schedule: Q04DX003 (ip), vehicle: Klucel (hydroxypropylcellulose) (HPC) 102 % of control | endpoint: mean survival time, dose: 25.0 mg/kg/injection, schedule: Q04DX003 (ip), vehicle: Klucel (hydroxypropylcellulose) (HPC) 102 % of control

O=C1CCCCCCCC1O (configuration not stated)
inactive: [1] 95 % of control | [3] 94 % of control | [5] 105 % of control

C=CCOc1ccc(Cl)cc1Cl
inactive: endpoint: mean survival time, dose: 37.5 mg/kg/injection, schedule: Q01DX009 (ip), vehicle: saline with Tween-80 93 % of control | endpoint: mean survival time, dose: 75.0 mg/kg/injection, schedule: Q01DX009 (ip), vehicle: saline with Tween-80 101 % of control | endpoint: mean survival time, dose: 150.0 mg/kg/injection, schedule: Q01DX009 (ip), vehicle: saline with Tween-80 97 % of control

COc1ccccc1C(=O)C(=O)c1ccccc1OC
inactive: [2] 100 % of control | [4] 96 % of control | [6] 100 % of control

CCOC(=O)C(C(=O)OCC)C(=O)C(C)C
inactive: [2] 93 % of control | [4] 97 % of control | [6] 95 % of control

NC(=O)Nc1n[nH]c(-c2ccccc2)n1
inactive: [2] 93 % of control | [4] 91 % of control | [6] 91 % of control

CCCCOC(=O)c1ccc(OC(=O)Nc2ccc(C)cc2[N+](=O)[O-])cc1
inactive: endpoint: mean survival time, dose: 25.0 mg/kg/injection, schedule: Q01DX009 (ip), vehicle: saline + alcohol 102 % of control | endpoint: mean survival time, dose: 50.0 mg/kg/injection, schedule: Q01DX001 (ip), vehicle: saline with Tween-80 109 % of control | endpoint: mean survival time, dose: 50.0 mg/kg/injection, schedule: Q01DX009 (ip), vehicle: saline + alcohol 108 % of control | [7] 113 % of control | endpoint: mean survival time, dose: 100.0 mg/kg/injection, schedule: Q01DX009 (ip), vehicle: saline + alcohol 103 % of control | [8] 109 % of control | endpoint: mean survival time, dose: 200.0 mg/kg/injection, schedule: Q01DX009 (ip), vehicle: saline + alcohol 101 % of control | [9] 107 % of control

CNC(C)COc1ccc(O)cc1 (configuration not stated)
inactive: endpoint: mean survival time, dose: 100.0 mg/kg/injection, schedule: Q01DX009 (ip), vehicle: saline 110 % of control | endpoint: mean survival time, dose: 100.0 mg/kg/injection, schedule: Q04DX003 (ip), vehicle: saline 108 % of control | endpoint: mean survival time, dose: 200.0 mg/kg/injection, schedule: Q01DX009 (ip), vehicle: saline 110 % of control | endpoint: mean survival time, dose: 200.0 mg/kg/injection, schedule: Q04DX003 (ip), vehicle: saline 104 % of control | endpoint: mean survival time, dose: 400.0 mg/kg/injection, schedule: Q04DX003 (ip), vehicle: saline 114 % of control
